Source: patent publication US20260294767A1, “USE OF ERGOTHIONEINE IN PROMOTING COLLAGEN GENERATION” (BLOOMAGE BIOTECHNOLOGY CORPORATION LIMITED, priority 2022, published 2026)

What was measured:
[1] = system: type III collagen generation in human fibroblast (HFF); test: Type III collagen content by human collagen III ELISA in human fibroblast (HFF); assay type: cell-based; settings: 0.2 wt % ergothioneine, 72 hours
Experimental: Human fibroblast (HFF) in logarithmic growth phase were collected, discarding the culture medium, washing them once with PBS, adding 0.25 wt % trypsin, incubating in a cell culture incubator for 1 minute, and then terminating digestion of the culture medium. The culture medium was centrifuged at 1000 rpm for 3 minutes, and the cells were resuspended in complete DMEM medium and counted. Human fibroblast (HFF) were inoculated into 12-well plates at a density of 3×10^5 cells/ml, with 1 ml/well. After incubation in an incubator at 37° C. and 5% CO2 for 24 hours, the culture medium was removed and the cells were washed with PBS.
The cells washed in step 1 were divided into two groups, namely a blank control group and an ergothioneine group, with 3 replicates in each group. Among them, the blank control group: 1 ml of serum-free culture medium; the ergothioneine group: 1 ml of serum-free culture medium containing 0.2 wt % ergothioneine.
After thoroughly mixing, cells in the above groups were placed in an incubator and cultured for another 72 hours.
Phase contrast microscopy was used to observe cell growth, morphology, and integrity of the cell monolayer, and changes in cell morphology and growth were recorded. The content of type III collagen was determined by using the human collagen III ELISA kit.
Type III collagen promotion rate was calculated as: […]

[2] = system: type III collagen generation in primary human dermal fibroblasts; test: Type III collagen generation in primary human dermal fibroblasts, ELISA of culture supernatant; assay type: cell-based; settings: for Relative expression level of type III collagen: N=3, vs blank control 100.00%
Experimental: A sample solution was prepared by dissolving ergothioneine solid powder in a basic culture medium, and the concentration was adjusted to 0.001 wt %.
When the in vitro cultured fibroblasts reached 80-90% confluence, they were digested with trypsin and inoculated into 96-well plates. After 48 hours of monolayer culture in a 96-well plate, cells were treated with the ergothioneine sample prepared in step (1) (N=3), with a treatment group comprising 100 ng/mL IGF-1 was set as the positive control. After 48 hours, the cell culture supernatant was taken for ELISA assay of type III collagen, and the type III collagen content of the measured sample group was statistically compared with that of the blank control group to evaluate the effect of ergothioneine on the generation of type III collagen.
All results were presented as Mean±SD, and differences in measured data were compared using an unpaired t-test. P-value<0.05 is considered statistically significant.

Compound	effect on generation of type III collagen (in words) ([1]; compared with blank control)	activity at 0.2 wt % ([1]; Homo sapiens, Fibroblast, serum-free medium, 3 replicates, vs blank control 100.0 ± 12.3, ** P < 0.01, read-out: Relative expression level of type III collagen (%)) [%]	activation at 0.2 wt % ([1]; Homo sapiens, Fibroblast, serum-free medium, 3 replicates, vs blank control, read-out: Type III collagen promotion rate (%)) [%]	effect on generation of type III collagen (in words) ([2]; ergothioneine 0.001%, 48 hours, P<0.05)	Relative expression level of type III collagen ([2]; ergothioneine 0.001 wt %, 48 hours, SD 0.07, P 0.0360) [%]	effect on synthesis of type III collagen in fibroblasts (in words) ([2]; 100 ng/mL IGF-1, 48 hours, P<0.05)	Relative expression level of type III collagen ([2]; positive control 100 ng/mL IGF-1, 48 hours, SD 0.05, P 0.0103) [%]
C[N+](C)(C)[C@@H](Cc1c[nH]c(=S)[nH]1)C(=O)[O-] [Ergothioneine, ergothioneine]	can significantly promote the generation of type III collagen	148 ± 20.1	48.3 ± 20.1	significantly promotes the generation of type III collagen	117.8		
IGF-1: 100 ng/mL IGF-1 was set as the positive control						significantly promotes the synthesis of type III collagen in fibroblasts	129.3
